How the values were obtained:
p110δ/p85 = p110δ/p85 (Homo sapiens, UniProt O00329); experiment: Inhibition of isolated enzyme (lipid kinase assay, [γ33P]ATP, TLC); format: biochemical; details: recombinant enzyme, 100 μM ATP, 1 hr room temperature, average of two experiments
Description: (§1) Compounds were evaluated for their ability to inhibit Class I PI 3-kinase enzymes p110δ/p85, p110α/p85, and p110β/p85. Reaction mixtures comprising 0.1 μg of a recombinant enzyme, 10 μg of L-α-phosphatidylinositol, and 2× Lipid Kinase Buffer (40 mM Tris-HCl, pH 7.4, 200 mM NaCl, 1 mM EDTA), which contains either DMSO only as a control or the test compound in DMSO (the final DMSO concentration is 1%), were activated by the addition of an ATP mix (5 mM MgCl2, 100 μM ATP, and 0.1 μL [γ^33P]ATP). Reactions were incubated at room temperature for 1 hr, and then stopped by the addition of 1M HCl. The lipids were then extracted using a two step procedure. Firstly, 200 μL of chloroform/methanol (1:1) was added, the biphasic reactions mixed and centrifuged briefly, and the inorganic phase was removed and discarded. Following this, 80 μL of methanol:HCl (1:1) was added and the same procedure followed. The organic phase (70 μL) was then transferred to a clean 1.6 mL tube and the reactions were dried using a Speedvac, with no heating, for […]. The reactions were spotted onto TLC plates (Merck Ltd) and developed for 1 hr in propanol-1:2 M acetic acid (13:7). The TLC plates were then dried at room temperature and quantified using a phosphorimager (StormImager, Amersham). Nine compound concentrations were used for each test compound to determine its IC50 value. Each experiment was performed twice and the average IC50 value is used herein.

p110α/p85 = p110α/p85 (Homo sapiens, UniProt P42336); experiment: as above; format: biochemical; details: recombinant enzyme, 100 μM ATP, 1 hr room temperature, average of two experiments
Description: as §1

p110β/p85 = p110β/p85 (Homo sapiens, UniProt P42338); experiment: as above; format: biochemical; details: recombinant enzyme, 100 μM ATP, 1 hr room temperature, average of two experiments
Description: as §1

NZB5 = experiment: Cellular growth inhibition (3H-thymidine incorporation); format: cell-based; details: Homo sapiens, five days incubation, 3H-thymidine over the last 6 hrs, read-out: Cell IC50* NZB5
Description: (§2) The compounds were evaluated against two early passage human cell lines NZB5 and NZOV9 (Marshall et al., Oncol. Res. 2004, 14, 297). The cells were grown in ITS medium (α-modified minimal essential medium supplemented insulin, transferrin, selenite, and 5% fetal bovine serum) and grown on 96-well tissue culture plates under an atmosphere of 5% O2, 5% CO2, and 90% N2. Individual wells contained 500-1,000 cells (depending on the growth rate) in a volume of 150 μL. Compounds were added at 10-fold concentration steps to a maximum of 20 μM and plates were incubated for five days, with ^3H-thymidine being added over the last 6 hrs. Cells were harvested and incorporated radioactivity measured. Duplicate samples were analyzed for each compound dose with multiple control samples. Data were fitted by a least-squares method to an exponential of the form y=y0+ae^−bx, where y is the radioactivity (corrected for background and normalized to 100% of the control), x is the […], and y0, a, and b are variables, and the IC50 value defined as the compound concentration reducing ^3H-thymidine levels by 50%.

NZOV9 = experiment: as above; format: cell-based; details: Homo sapiens, five days incubation, 3H-thymidine over the last 6 hrs, read-out: Cell IC50* NZOV9
Description: as §2

Sequence of p110β/p85 (P42338 whole entry, species assumed): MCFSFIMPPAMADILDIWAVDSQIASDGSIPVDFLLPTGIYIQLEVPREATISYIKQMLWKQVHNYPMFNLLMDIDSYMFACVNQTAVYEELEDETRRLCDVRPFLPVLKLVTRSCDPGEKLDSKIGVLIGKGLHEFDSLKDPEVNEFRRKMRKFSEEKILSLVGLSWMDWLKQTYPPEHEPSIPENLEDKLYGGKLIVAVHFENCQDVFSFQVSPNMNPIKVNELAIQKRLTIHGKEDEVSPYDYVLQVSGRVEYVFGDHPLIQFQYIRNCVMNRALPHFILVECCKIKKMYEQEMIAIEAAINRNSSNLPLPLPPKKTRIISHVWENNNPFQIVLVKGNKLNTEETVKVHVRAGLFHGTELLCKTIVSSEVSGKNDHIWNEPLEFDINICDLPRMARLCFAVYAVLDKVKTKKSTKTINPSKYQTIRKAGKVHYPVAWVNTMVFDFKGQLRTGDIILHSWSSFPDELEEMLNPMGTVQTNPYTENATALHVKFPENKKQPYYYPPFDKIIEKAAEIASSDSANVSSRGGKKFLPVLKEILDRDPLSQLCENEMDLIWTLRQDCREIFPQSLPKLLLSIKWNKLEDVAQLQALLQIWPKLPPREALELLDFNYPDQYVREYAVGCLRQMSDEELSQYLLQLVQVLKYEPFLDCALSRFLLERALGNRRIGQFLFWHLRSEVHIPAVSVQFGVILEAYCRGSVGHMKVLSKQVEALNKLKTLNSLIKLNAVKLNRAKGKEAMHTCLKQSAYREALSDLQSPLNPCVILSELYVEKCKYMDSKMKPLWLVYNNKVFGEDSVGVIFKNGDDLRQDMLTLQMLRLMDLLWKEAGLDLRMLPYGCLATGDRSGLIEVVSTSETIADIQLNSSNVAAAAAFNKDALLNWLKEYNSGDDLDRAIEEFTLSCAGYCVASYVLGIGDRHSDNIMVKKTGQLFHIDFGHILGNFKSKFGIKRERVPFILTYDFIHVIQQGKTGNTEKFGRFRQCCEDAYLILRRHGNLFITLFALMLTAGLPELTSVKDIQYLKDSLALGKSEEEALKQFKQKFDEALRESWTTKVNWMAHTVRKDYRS
Sequence of p110β/p85 (P27986 whole entry partner, species assumed): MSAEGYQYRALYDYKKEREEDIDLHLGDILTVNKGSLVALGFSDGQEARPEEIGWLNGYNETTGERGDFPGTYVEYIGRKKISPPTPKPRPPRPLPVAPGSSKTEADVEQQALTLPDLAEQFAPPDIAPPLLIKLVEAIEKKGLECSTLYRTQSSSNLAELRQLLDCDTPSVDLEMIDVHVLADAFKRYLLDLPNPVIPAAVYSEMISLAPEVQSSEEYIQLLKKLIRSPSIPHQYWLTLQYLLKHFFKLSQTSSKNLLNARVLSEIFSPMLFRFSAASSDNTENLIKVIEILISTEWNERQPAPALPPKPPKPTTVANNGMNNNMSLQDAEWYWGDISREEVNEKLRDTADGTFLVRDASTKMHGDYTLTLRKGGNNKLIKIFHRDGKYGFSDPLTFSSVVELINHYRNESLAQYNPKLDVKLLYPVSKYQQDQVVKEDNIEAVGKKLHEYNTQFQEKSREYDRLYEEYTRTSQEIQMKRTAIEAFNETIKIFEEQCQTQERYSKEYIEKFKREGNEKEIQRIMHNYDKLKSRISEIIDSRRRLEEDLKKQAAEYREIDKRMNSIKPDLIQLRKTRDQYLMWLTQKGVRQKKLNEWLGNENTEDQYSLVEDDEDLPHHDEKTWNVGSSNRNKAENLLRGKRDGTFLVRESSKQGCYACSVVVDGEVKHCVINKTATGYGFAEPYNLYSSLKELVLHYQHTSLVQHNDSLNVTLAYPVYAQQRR
Sequence of p110δ/p85 (O00329 whole entry, species assumed): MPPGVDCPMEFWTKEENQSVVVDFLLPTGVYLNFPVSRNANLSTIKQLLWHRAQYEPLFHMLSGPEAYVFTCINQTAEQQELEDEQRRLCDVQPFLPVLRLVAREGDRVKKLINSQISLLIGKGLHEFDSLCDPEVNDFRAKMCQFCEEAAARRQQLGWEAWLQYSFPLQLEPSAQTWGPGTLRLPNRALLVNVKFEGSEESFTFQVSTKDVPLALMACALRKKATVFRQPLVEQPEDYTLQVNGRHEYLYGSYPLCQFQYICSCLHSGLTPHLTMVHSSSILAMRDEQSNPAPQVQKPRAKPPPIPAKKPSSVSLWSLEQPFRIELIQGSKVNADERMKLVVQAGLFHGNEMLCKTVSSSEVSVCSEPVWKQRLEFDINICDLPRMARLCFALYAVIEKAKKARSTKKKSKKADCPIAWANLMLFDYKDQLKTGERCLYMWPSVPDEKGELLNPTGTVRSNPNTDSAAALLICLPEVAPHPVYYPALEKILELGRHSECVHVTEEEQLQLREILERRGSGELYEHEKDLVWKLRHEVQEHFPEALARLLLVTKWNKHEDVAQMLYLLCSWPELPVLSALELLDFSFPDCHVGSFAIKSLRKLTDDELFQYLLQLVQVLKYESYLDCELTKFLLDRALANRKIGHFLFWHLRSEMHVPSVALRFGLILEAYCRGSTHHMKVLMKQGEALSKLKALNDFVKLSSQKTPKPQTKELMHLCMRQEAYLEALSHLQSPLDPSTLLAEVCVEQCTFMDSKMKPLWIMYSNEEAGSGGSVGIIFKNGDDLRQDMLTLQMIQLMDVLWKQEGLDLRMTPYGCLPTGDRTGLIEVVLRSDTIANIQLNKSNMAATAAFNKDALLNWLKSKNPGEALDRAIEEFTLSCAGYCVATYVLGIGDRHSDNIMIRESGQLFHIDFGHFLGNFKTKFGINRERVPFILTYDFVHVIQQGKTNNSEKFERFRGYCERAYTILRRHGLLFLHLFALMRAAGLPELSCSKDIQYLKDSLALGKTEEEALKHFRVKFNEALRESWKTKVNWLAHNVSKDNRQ
Sequence of p110δ/p85 (P27986 whole entry partner, species assumed): as the sequence (P27986 whole entry partner, species assumed) above
Sequence of p110α/p85 (P42336 whole entry): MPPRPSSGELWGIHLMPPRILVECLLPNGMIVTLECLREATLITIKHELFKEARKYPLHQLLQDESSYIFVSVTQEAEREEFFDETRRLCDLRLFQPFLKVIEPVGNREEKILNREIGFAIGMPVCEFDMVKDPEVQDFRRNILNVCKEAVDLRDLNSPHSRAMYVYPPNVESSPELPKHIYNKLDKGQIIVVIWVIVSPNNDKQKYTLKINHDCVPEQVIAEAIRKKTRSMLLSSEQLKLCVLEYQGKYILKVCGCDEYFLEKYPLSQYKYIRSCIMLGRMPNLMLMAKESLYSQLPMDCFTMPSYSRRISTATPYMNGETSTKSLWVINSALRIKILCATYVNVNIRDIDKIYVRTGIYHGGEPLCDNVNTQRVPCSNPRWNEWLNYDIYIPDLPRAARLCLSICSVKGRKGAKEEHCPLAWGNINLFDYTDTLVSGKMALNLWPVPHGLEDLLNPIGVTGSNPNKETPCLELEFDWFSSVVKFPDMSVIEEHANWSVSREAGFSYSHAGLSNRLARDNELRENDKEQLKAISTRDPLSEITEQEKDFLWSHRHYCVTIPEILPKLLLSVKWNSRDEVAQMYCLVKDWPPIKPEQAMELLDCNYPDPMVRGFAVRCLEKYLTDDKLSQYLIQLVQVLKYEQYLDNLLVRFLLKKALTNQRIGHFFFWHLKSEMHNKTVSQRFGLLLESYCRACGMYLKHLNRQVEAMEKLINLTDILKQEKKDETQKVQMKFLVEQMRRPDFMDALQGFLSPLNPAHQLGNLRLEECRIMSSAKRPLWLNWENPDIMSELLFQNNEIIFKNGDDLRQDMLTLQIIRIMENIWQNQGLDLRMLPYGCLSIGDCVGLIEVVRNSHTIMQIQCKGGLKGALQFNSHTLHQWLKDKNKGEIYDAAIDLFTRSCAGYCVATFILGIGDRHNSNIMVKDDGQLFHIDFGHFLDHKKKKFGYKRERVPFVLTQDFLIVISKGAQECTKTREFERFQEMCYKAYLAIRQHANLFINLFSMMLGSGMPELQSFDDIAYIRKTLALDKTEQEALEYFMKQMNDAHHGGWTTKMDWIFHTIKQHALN
Sequence of p110α/p85 (P27986 whole entry partner): as the sequence (P27986 whole entry partner, species assumed) above

SMILES | melting point [°C] | IC50 (p110δ/p85) [µM] | IC50 (p110α/p85) [µM] | IC50 (p110β/p85) [µM] | IC50 (NZB5) [µM] | IC50 (NZOV9) [µM]
COc1ccncc1Nc1nc(N2CCOCC2)nc(-n2c(C(F)F)nc3c(OC)cccc32)n1 [Example 27, 4-[2-(difluoromethyl)-4-methoxy-1H-benzimidazol-1-yl]-N-(4-methoxy-3-pyridinyl)-6-(4-morpholinyl)-1,3,5-triazin-2-amine] | 239 to 241 | < 0.1 | < 0.1 | 0.1 to 1 | 0.1 to 1 | < 0.1
COc1cccc2c1nc(C(F)F)n2-c1nc(N2CCOCC2)nc(N(C)c2cccnc2)n1 [Example 3, 4-[2-(difluoromethyl)-4-methoxy-1H-benzimidazol-1-yl]-N-methyl-6-(4-morpholinyl)-N-(3-pyridinyl)-1,3,5-triazin-2-amine] | 200 to 201 | < 0.1 | < 0.1 | < 0.1 | 0.1 to 1 | < 0.1
FC(F)c1nc2ccccc2n1-c1nc(Nc2cncnc2)nc(N2CCOCC2)n1 [Example 21, 4-[2-(difluoromethyl)-1H-benzimidazol-1-yl]-6-(4-morpholinyl)-N-(5-pyrimidinyl)-1,3,5-triazin-2-amine] | 290 to 292 | < 0.1 | < 0.1 |  | 0.1 to 1 | 0.1 to 1
FC(F)c1nc2ccccc2n1-c1nc(Nc2ncccn2)nc(N2CCOCC2)n1 [Example 19, 4-[2-(difluoromethyl)-1H-benzimidazol-1-yl]-6-(4-morpholinyl)-N-(2-pyrimidinyl)-1,3,5-triazin-2-amine] | 261 to 263 |  | 0.1 to 1 |  | 0.1 to 1 | 0.1 to 1
COc1cccc2c1nc(C(F)F)n2-c1nc(Nc2ccc(F)nc2)nc(N2CCOCC2)n1 [Example 29, 4-[2-(difluoromethyl)-4-methoxy-1H-benzimidazol-1-yl]-N-(6-fluoro-3-pyridinyl)-6-(4-morpholinyl)-1,3,5-triazin-2-amine] | 261 to 263 | < 0.1 | < 0.1 | 0.1 to 1 | < 0.1 | < 0.1
CN(c1ccccc1)c1nc(N2CCOCC2)nc(-n2c(C(F)F)nc3ccccc32)n1 [Example 7, 4-[2-(difluoromethyl)-1H-benzimidazol-1-yl]-N-methyl-6-(4-morpholinyl)-N-phenyl-1,3,5-triazin-2-amine] | 160 to 162 | 0.1 to 1 | 0.1 to 1 | 0.1 to 1 | 0.1 to 1 | 0.1 to 1
FC(F)c1nc2ccccc2n1-c1nc(NCc2ccncc2)nc(N2CCOCC2)n1 [Example 15, 4-[2-(difluoromethyl)-1H-benzimidazol-1-yl]-6-(4-morpholinyl)-N-(4-pyridinylmethyl)-1,3,5-triazin-2-amine] | 188 to 190 |  | 0.1 to 1 |  | 0.1 to 1 | 0.1 to 1
FC(F)c1nc2ccccc2n1-c1nc(Oc2cccnc2)nc(N2CCOCC2)n1 [Example 24, 2-(difluoromethyl)-1-[4-(4-morpholinyl)-6-(3-pyridinyloxy)-1,3,5-triazin-2-yl]-1H-benzimidazole] | 229 to 231 |  | 0.1 to 1 |  | 1 to 10 | 1 to 10
FC(F)c1nc2ccccc2n1-c1nc(Nc2cnccn2)nc(N2CCOCC2)n1 [Example 22, 4-[2-(difluoromethyl)-1H-benzimidazol-1-yl]-6-(4-morpholinyl)-N-(2-pyrazinyl)-1,3,5-triazin-2-amine] | 271 to 274 | < 0.1 | < 0.1 |  | 0.1 to 1 | 0.1 to 1
FC(F)c1nc2ccccc2n1-c1nc(Nc2cnc3ccccc3c2)nc(N2CCOCC2)n1 [Example 18, N-[4-[2-(difluoromethyl)-1H-benzimidazol-1-yl]-6-(4-morpholinyl)-1,3,5-triazin-2-yl]-3-quinolinamine] | 270 to 273 | 0.1 to 1 | 0.1 to 1 |  | 0.1 to 1 | 0.1 to 1
FC(F)c1nc2ccccc2n1-c1nc(Nc2ccncn2)nc(N2CCOCC2)n1 [Example 20, 4-[2-(difluoromethyl)-1H-benzimidazol-1-yl]-6-(4-morpholinyl)-N-(4-pyrimidinyl)-1,3,5-triazin-2-amine] | 233 to 235 | < 0.1 | < 0.1 |  | 0.1 to 1 | 0.1 to 1
FC(F)c1nc2ccccc2n1-c1nc(Nc2ccccn2)nc(N2CCOCC2)n1 [Example 16, 4-[2-(difluoromethyl)-1H-benzimidazol-1-yl]-6-(4-morpholinyl)-N-(2-pyridinyl)-1,3,5-triazin-2-amine] | 230 to 232 | < 0.1 | < 0.1 |  | 0.1 to 1 | 0.1 to 1
FC(F)c1nc2ccccc2n1-c1nc(Nc2cncnc2)nc(N2CCOCC2)n1 [Example 35, 4-[2-(difluoromethyl)-1H-benzimidazol-1-yl]-6-(4-morpholinyl)-N-(5-pyrimidinyl)-1,3,5-triazin-2-amine] |  |  |  | 0.1 to 1 |  | 
COc1cccc2c1nc(C(F)F)n2-c1nc(Nc2cnc(N(C)CCN(C)C)nc2)nc(N2CCOCC2)n1 [Example 42, N^5-[4-[2-(difluoromethyl)-4-methoxy-1H-benzimidazol-1-yl]-6-(4-morpholinyl)-1,3,5-triazin-2-yl]-N^2-[2-(dimethylamino)ethyl]-N^2-methyl-2,5-pyrimidinediamine] | 96 to 98 | < 0.1 | < 0.1 |  |  | 
COc1cccc2c1nc(C(F)F)n2-c1nc(N2CCOCC2)nc(N(C)c2cncnc2)n1 [Example 45, 4-[2-(difluoromethyl)-4-methoxy-1H-benzimidazol-1-yl]-N-methyl-6-(4-morpholinyl)-N-(5-pyrimidinyl)-1,3,5-triazin-2-amine] | 214 to 217 | < 0.1 | < 0.1 |  |  | 
COc1ncc(-c2cc(N3CCOCC3)nc(-n3c(C(F)F)nc4c(OC)cccc43)n2)cn1 [Example 57, 2-[2-(difluoromethyl)-4-methoxy-1H-benzimidazol-1-yl]-6-(4-morpholinyl)-2′-methoxy-4,5′-bipyrimidine] | 238 to 241 | 0.1 to 1 | < 0.1 |  |  | 
COc1cccc2c1nc(C(F)F)n2-c1nc(N2CCOCC2)nc(-n2cccn2)n1 [Example 63, 2-(Difluoromethyl)-4-methoxy-1-[4-(4-morpholinyl)-6-(1H-pyrazol-1-yl)-1,3,5-triazin-2-yl]-1H-benzimidazole] | 274 to 277 | < 0.1 | < 0.1 |  |  | 
COc1ncc(Nc2nc(N3CCOCC3)nc(-n3c(C(F)F)nc4c(OC)cccc43)n2)cn1 [Example 40, 4-[2-(difluoromethyl)-4-methoxy-1H-benzimidazol-1-yl]-N-(2-methoxy-5-pyrimidinyl)-6-(4-morpholinyl)-1,3,5-triazin-2-amine] |  | < 0.1 | < 0.1 | 0.1 to 1 | 0.1 to 1 | 0.1 to 1
CN(Cc1ccccc1)c1nc(N2CCOCC2)nc(-n2c(C(F)F)nc3ccccc32)n1 [Example 9, N-benzyl-4-[2-(difluoromethyl)-1H-benzimidazol-1-yl]-N-methyl-6-(4-morpholinyl)-1,3,5-triazin-2-amine] | 147 to 150 | < 0.1 | 1 to 10 | 0.1 to 1 |  | 0.1 to 1
